Drawing on the RepoRT retention time repository (doi:10.1016/j.foodchem.2021.129757), this text covers LC retention time for 21 molecules.

Each structure is given as a SMILES string.

One data set in a line: RP, Agilent InfinityLab Poroshell 120 EC-C18, 100 × 3 mm, 2.7 µm, 25 °C, 0.4 mL/min, estimated dead time 1.1 min; A: water + 0.1% formic acid, pH 3; B: acetonitrile + 0.1% formic acid, pH 3; gradient (min/%B) 0/5 10/25 20/40 24/90 25/90 26/5 30/5. As to conditions: stereoisomer not certain.
For the molecule `Oc1cc(O)c2c(c1)OC(c1cc(O)c(O)c(O)c1)C(O)C2` (single isomer, unassigned; (-)) [(-)-Epigallocatechin], the LC retention time is 4.79 min.

The nature of a further data set: RP, Agilent ZORBAX Eclipse XDB-C18, 100 × 2.1 mm, 1.8 µm, 50 °C, 0.4 mL/min, estimated dead time 0.55 min; A: water + 0.1% formic acid, pH 3; B: methanol + 0.1% formic acid, pH 3; gradient (min/%B) 0/2 10/100 14.5/100 14.51/2 16.5/2. Particulars: stereoisomer not certain.
Regarding `Cc1c(C)c2c(c(C)c1O)CCC(C)(CCCC(C)CCCC(C)CCCC(C)C)O2` (stereo not drawn) [alpha-tocopherol], the LC retention time is 12.5 min.

A further data set is described as follows: RP, 150 × 2.1 mm, 2.6 µm, 40 °C, 0.35 mL/min, estimated dead time 0.94 min; A: water + 0.1% formic acid, pH 3; B: acetonitrile + 0.1% formic acid, pH 3; gradient (min/%B) 0/0 1/0 12.5/100 14/100 14.2/0 15/0. As to conditions: stereoisomer not certain.
In the case of `Oc1cc(O)c2c(c1)OC(c1cc(O)c(O)c(O)c1)C(O)C2` (single isomer, unassigned; (-)) [(-)-Epigallocatechin], the LC retention time is 4.2 min.

On to `Oc1cccc(O)c1O` [Pyrogallol], for which the LC retention time is 2.06 min.

For `O=c1c(OC2OC(CO)C(O)C(O)C2O)c(-c2ccc(OC3OC(CO)C(O)C(O)C3O)c(O)c2)oc2cc(O)cc(O)c12` (stereo not drawn) [Quercetin-3,4'-diglucoside], the LC retention time is 5.13 min.

The nature of another data set: RP, Waters ACQUITY UPLC HSS T3, 100 × 2.1 mm, 1.8 µm, 30 °C, 0.4 mL/min, estimated dead time 0.55 min; A: water + 0.1% formic acid, pH 3; B: acetonitrile + 0.1% formic acid, pH 3; gradient (min/%B) 0/0 2/0 15/100 22/100 22.1/0 26/0. As to conditions: stereoisomer not certain.
`OC1C(O)C(O)C(O)C(O)C1O` (stereo not drawn) [Myo-inositol]: the LC retention time is 0.86 min.

Turning to `C[N+]1(C)CCCC1C(=O)[O-]` (stereo not drawn) [Stachydrine], the LC retention time was 1.03 min.

`Oc1cc(O)c2c(c1)OC(c1cc(O)c(O)c(O)c1)C(O)C2` (single isomer, unassigned; (-)) [(-)-Epigallocatechin]: the LC retention time is 7.91 min.

For the molecule `Cc1c(C)c2c(c(C)c1O)CCC(C)(CCCC(C)CCCC(C)CCCC(C)C)O2` (stereo not drawn) [alpha-tocopherol], the LC retention time is 15.6 min.

The next data set in a line: RP, Waters Atlantis T3, 100 × 2.1 mm, 3 µm, 40 °C, 0.3 mL/min, estimated dead time 0.73 min; A: water + 0.1% trifluoroacetic acid, pH 2; B: acetonitrile + 0.1% trifluoroacetic acid, pH 2; gradient (min/%B) 0/10 1/10 6/40 7/50 8/50 14/70 16/80 20/10 25/10. Particulars: stereoisomer not certain.
Take `Oc1cc(O)c2c(c1)OC(c1cc(O)c(O)c(O)c1)C(O)C2` (single isomer, unassigned; (-)) [(-)-Epigallocatechin]: the LC retention time is 2.05 min.

For `CC1OC(OCC2OC(Oc3cc(O)c4c(c3)OC(c3ccc(O)cc3)CC4=O)C(O)C(O)C2O)C(O)C(O)C1O` (stereo not drawn) [Narirutin], the LC retention time is 7.65 min.

Take `Oc1cccc(O)c1O` [Pyrogallol]: the LC retention time is 1.93 min.

As to `O=c1c(OC2OC(CO)C(O)C(O)C2O)c(-c2ccc(OC3OC(CO)C(O)C(O)C3O)c(O)c2)oc2cc(O)cc(O)c12` (stereo not drawn) [Quercetin-3,4'-diglucoside], the LC retention time is 6.4 min.

In the case of `COc1cc(O)c2c(c1)OC(c1ccc(O)cc1)CC2=O` (stereo not drawn) [Sakuranetin], the LC retention time is 12.1 min.

As to `CC(C)c1cc2c(c(O)c1O)C13CCCC(C)(C)C1CC2OC3=O` (stereo not drawn) [Carnosol], the LC retention time was 16.3 min.

For the molecule `O=c1c(O)c(-c2ccc(O)cc2)oc2cc(OC3OC(CO)C(O)C(O)C3O)cc(O)c12` (stereo not drawn) [kaempferol-7-O-glucoside], the LC retention time is 7.37 min.

In the case of `CC(C)c1cc2c(c(O)c1O)C13CCCC(C)(C)C1C(OC3=O)C2O` (stereo not drawn) [Rosmanol], the LC retention time was 11.8 min.

On to `CC(C)c1cc2c(c(O)c1O)C1(C(=O)O)CCCC(C)(C)C1CC2` (stereo not drawn) [Carnosic acid], for which the LC retention time was 15.2 min.

As to `COc1cc(O)c(CC=C(C)C)c(O)c1C(=O)C=Cc1ccc(O)cc1` [Xanthohumol], the LC retention time was 15.4 min.

A further data set in a line: RP, Waters ACQUITY UPLC BEH C18, 100 × 2.1 mm, 1.7 µm, 65 °C, 0.4 mL/min, estimated dead time 0.55 min; A: water + 0.1% formic acid, pH 3; B: 80% acetonitrile + 20% acetone + 0.1% formic acid, pH 3; gradient (min/%B) 0/0 5/100 5.5/0 6/0. As to conditions: stereoisomer not certain.
`CC(C)c1cc2c(c(O)c1O)C13CCCC(C)(C)C1CC2OC3=O` (stereo not drawn) [Carnosol]: the LC retention time was 4.02 min.

Consider `Cc1c(C)c2c(c(C)c1O)CCC(C)(CCCC(C)CCCC(C)CCCC(C)C)O2` (stereo not drawn) [alpha-tocopherol], for which the LC retention time was 5.55 min.

A short description of a further data set: RP, Phenomenex Luna Omega Polar C18, 100 × 2.1 mm, 1.6 µm, 40 °C, 0.5 mL/min, estimated dead time 0.44 min; A: water + 0.5% formic acid; B: acetonitrile + 0.5% formic acid; gradient (min/%B) 0/5 3/50 3.1/100 5/100 5.1/5 7/5. Particulars: stereoisomer not certain.
For the molecule `OC1C(O)C(O)C(O)C(O)C1O` (stereo not drawn) [Myo-inositol], the LC retention time is 0.54 min.

In the case of `C[N+]1(C)CCCC1C(=O)[O-]` (stereo not drawn) [Stachydrine], the LC retention time was 0.61 min.

For `CCC(CCC(C)C1CCC2C3CC=C4CC(O)CCC4(C)C3CCC12C)C(C)C` (stereo not drawn) [beta-sitosterol], the LC retention time was 3.92 min.

Turning to `Cc1c(C)c2c(c(C)c1O)CCC(C)(CCCC(C)CCCC(C)CCCC(C)C)O2` (stereo not drawn) [alpha-tocopherol], the LC retention time is 4.03 min.

Another data set in a line: RP, Phenomenex Synergi Hydro-RP, 250 × 2 mm, 4 µm, 25 °C, 0.2 mL/min, estimated dead time 2.5 min; A: water + 0.1% formic acid, pH 3; B: acetonitrile + 0.1% formic acid, pH 3; gradient (min/%B) 0/0.5 7/0.5 12/12.5 25/16.3 47/35 48/65 50/65 50.1/0.5. Particulars: stereoisomer not certain.
`O=c1c(OC2OC(CO)C(O)C(O)C2O)c(-c2ccc(OC3OC(CO)C(O)C(O)C3O)c(O)c2)oc2cc(O)cc(O)c12` (stereo not drawn) [Quercetin-3,4'-diglucoside]: the LC retention time is 29.1 min.

On to `O=c1c(O)c(-c2ccc(O)cc2)oc2cc(OC3OC(CO)C(O)C(O)C3O)cc(O)c12` (stereo not drawn) [kaempferol-7-O-glucoside], for which the LC retention time is 38.3 min.

A further data set can be described thus: RP, Waters ACQUITY UPLC HSS T3, 100 × 2.1 mm, 50 °C; A: water + 0.1% formic acid, pH 3; B: 30% methanol + 70% acetonitrile + 0.1% formic acid, pH 3; gradient (min/%B) 0/5 1/8 2/15 3/40 4/70 4.5/100 5/100 6.4/100 6.6/5 6.8/5 7/5. Particulars: stereoisomer not certain.
In the case of `OC1C(O)C(O)C(O)C(O)C1O` (stereo not drawn) [Myo-inositol], the LC retention time is 0.461 min.

For `C[N+]1(C)CCCC1C(=O)[O-]` (stereo not drawn) [Stachydrine], the LC retention time amounted to 0.545 min.

In the case of `CC(C)c1cc2c(c(O)c1O)C13CCCC(C)(C)C1CC2OC3=O` (stereo not drawn) [Carnosol], the LC retention time is 4.52 min.

The next data set is described as follows: RP, Waters ACQUITY UPLC BEH Shield RP18, 100 × 2.1 mm, 1.7 µm, 30 °C, 0.6 mL/min, estimated dead time 0.37 min; A: water + 0.1% formic acid, pH 3; B: acetonitrile + 0.1% formic acid, pH 3; gradient (min/%B) 0/0 2/0 7/10 22/95 22.1/0 26/0. Particulars: stereoisomer not certain.
On to `OC1C(O)C(O)C(O)C(O)C1O` (stereo not drawn) [Myo-inositol], for which the LC retention time was 0.58 min.

Take `C[N+]1(C)CCCC1C(=O)[O-]` (stereo not drawn) [Stachydrine]: the LC retention time was 0.65 min.

As to `Cc1c(C)c2c(c(C)c1O)CCC(C)(CCCC(C)CCCC(C)CCCC(C)C)O2` (stereo not drawn) [alpha-tocopherol], the LC retention time was 18.1 min.

The next data set in a line: RP, 50 × 0.5 mm, 2.7 µm, 35 °C, 0.01 mL/min, estimated dead time 0.62 min; A: water + 0.1% formic acid, pH 3; B: acetonitrile + 0.1% formic acid, pH 3; gradient (min/%B) 0/5 12/95 14/95 16/5. As to conditions: stereoisomer not certain.
For the molecule `OC1C(O)C(O)C(O)C(O)C1O` (stereo not drawn) [Myo-inositol], the LC retention time is 2.65 min.

As for `O=c1c(O)c(-c2ccc(OS(=O)(=O)O)c(O)c2)oc2cc(OS(=O)(=O)O)cc(O)c12` [Quercetin disulfate], the LC retention time is 4.84 min.

For the molecule `Cc1c(C)c2c(c(C)c1O)CCC(C)(CCCC(C)CCCC(C)CCCC(C)C)O2` (stereo not drawn) [alpha-tocopherol], the LC retention time was 13.2 min.

The next data set in a line: RP, 150 × 2.1 mm, 2.6 µm, 40 °C, 0.35 mL/min, estimated dead time 0.94 min; A: water + 0.1% formic acid, pH 3; B: acetonitrile + 0.1% formic acid, pH 3; gradient (min/%B) 0/0 1/5 7/45 8.5/80 10.5/80 11/5 12/5. Particulars: stereoisomer not certain.
As to `Oc1cc(O)c2c(c1)OC(c1cc(O)c(O)c(O)c1)C(O)C2` (single isomer, unassigned; (-)) [(-)-Epigallocatechin], the LC retention time is 4.07 min.

As for `Oc1cccc(O)c1O` [Pyrogallol], the LC retention time was 1.87 min.

Turning to `O=c1c(OC2OC(CO)C(O)C(O)C2O)c(-c2ccc(OC3OC(CO)C(O)C(O)C3O)c(O)c2)oc2cc(O)cc(O)c12` (stereo not drawn) [Quercetin-3,4'-diglucoside], the LC retention time is 5.11 min.

The next data set can be described thus: RP, Phenomenex Synergi Hydro-RP, 150 × 2 mm, 4 µm, 30 °C, 0.5 mL/min, estimated dead time 0.6 min; A: water + 0.1% formic acid, pH 3; B: acetonitrile + 0.1% formic acid, pH 3; gradient (min/%B) 0/5 1/5 35/45 40/100 45/100. Particulars: stereoisomer not certain.
In the case of `OCCc1ccc(O)c(O)c1` [hydroxytyrosol], the LC retention time was 5 min.

Turning to `O=c1oc2cc(O)ccc2c2ccccc12` [urolithin B], the LC retention time was 28.6 min.

Consider `C[n+]1cccc(C(=O)[O-])c1` [trigonelline], for which the LC retention time is 0.731 min.

Consider `O=S(=O)(O)Oc1c(O)cccc1O` [Pyrogallol-2-O-sulfate], for which the LC retention time was 3.77 min.

In the case of `O=c1oc2cc(O)ccc2c2ccc(O)cc12` [urolithin A], the LC retention time was 21 min.

Take `O=C(O)c1cc(O)c(O)c(O)c1` [gallic acid]: the LC retention time is 2.13 min.

A short description of a further data set: RP, Phenomenex Luna C18, 150 × 4.6 mm, 3 µm, 25 °C, 0.5 mL/min, estimated dead time 3.2 min; A: water + 0.1% formic acid, pH 3; B: acetonitrile + 0.1% formic acid, pH 3; gradient (min/%B) 0/0 30/30 35/40 50/80 52/80 60/0 65/0. As to conditions: stereoisomer not certain.
Turning to `O=c1c(O)c(-c2ccc(OS(=O)(=O)O)c(O)c2)oc2cc(OS(=O)(=O)O)cc(O)c12` [Quercetin disulfate], the LC retention time was 31.6 min.

The nature of a further data set: RP, Waters ACQUITY UPLC BEH Shield RP18, 150 × 2.1 mm, 1.7 µm, 40 °C, 0.4 mL/min, estimated dead time 0.83 min; A: water + 0.1% formic acid, pH 3; B: acetonitrile + 0.1% formic acid, pH 3; gradient (min/%B) 0/0 30/50 31/100 37/100 37.1/0. As to conditions: stereoisomer not certain.
As to `OC1C(O)C(O)C(O)C(O)C1O` (stereo not drawn) [Myo-inositol], the LC retention time is 1.01 min.

In the case of `C[N+]1(C)CCCC1C(=O)[O-]` (stereo not drawn) [Stachydrine], the LC retention time is 1.06 min.
